Experimental data from ChEMBL document CHEMBL1143624, “1-(5-Chloro-2-alkoxyphenyl)-3-(5-cyanopyrazin-2-yl)ureas [correction of cyanopyrazi] as potent and selective inhibitors of Chk1 kinase: synthesis, preliminary SAR, and biological activities” (J Med Chem, 2005).

Key:
HeLa [1] = experiment: Anti-proliferative activity against HeLa cells; format: functional, cell-based; conditions: Homo sapiens
Aurora kinase A = biological target: T1, Aurora kinase A (Homo sapiens, UniProt O14965); experiment: Inhibition of Aurora kinase A (Aur1)
T1 sequence (O14965 whole entry): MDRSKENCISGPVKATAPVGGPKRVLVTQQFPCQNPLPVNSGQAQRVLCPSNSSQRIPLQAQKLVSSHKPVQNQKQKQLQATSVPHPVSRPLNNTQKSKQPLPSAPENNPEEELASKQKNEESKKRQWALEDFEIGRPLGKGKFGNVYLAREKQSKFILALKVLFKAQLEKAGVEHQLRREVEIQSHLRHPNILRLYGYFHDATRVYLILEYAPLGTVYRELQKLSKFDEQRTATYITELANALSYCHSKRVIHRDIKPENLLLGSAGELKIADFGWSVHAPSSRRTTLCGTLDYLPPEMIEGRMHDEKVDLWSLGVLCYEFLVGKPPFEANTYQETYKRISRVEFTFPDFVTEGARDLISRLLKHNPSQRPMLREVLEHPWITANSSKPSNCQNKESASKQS

HeLa [2] = experiment: Ratio of antiproliferative activities (EC50) against HeLa Cells to that with 150 nM doxorubicin; format: functional, Homo sapiens
[3] = biological target: Protein kinase C delta type (Homo sapiens, UniProt Q05655); experiment: Inhibition of Protein kinase C delta (PKCdelta)
[4] = Inhibition of Protein kinase C gamma (PKCgamma)
HeLa [5] = experiment: Anti-proliferative activity against HeLa cells in the presence of 150 nM of doxorubicin; format: functional, cell-based; conditions: Homo sapiens
[6] = biological target: T2, Serine/threonine-protein kinase Chk1 (Homo sapiens, UniProt O14757); experiment: Inhibition of Serine/threonine-protein kinase Chk1
T2 sequence (O14757 whole entry): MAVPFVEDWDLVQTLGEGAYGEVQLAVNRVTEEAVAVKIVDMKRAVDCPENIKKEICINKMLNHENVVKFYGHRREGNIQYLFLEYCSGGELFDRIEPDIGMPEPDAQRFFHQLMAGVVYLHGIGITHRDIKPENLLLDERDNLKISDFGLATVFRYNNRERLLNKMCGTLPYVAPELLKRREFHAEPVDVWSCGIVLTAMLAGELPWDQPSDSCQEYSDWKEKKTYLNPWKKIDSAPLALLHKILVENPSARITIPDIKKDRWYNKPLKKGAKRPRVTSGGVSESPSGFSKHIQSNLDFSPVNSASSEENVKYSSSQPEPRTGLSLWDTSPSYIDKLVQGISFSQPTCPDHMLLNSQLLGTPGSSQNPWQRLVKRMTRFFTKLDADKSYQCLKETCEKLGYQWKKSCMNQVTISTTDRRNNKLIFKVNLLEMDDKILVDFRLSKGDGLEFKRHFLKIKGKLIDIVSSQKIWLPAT

[7] = biological target: T3, Serine/threonine-protein kinase Sgk1 (Homo sapiens, UniProt O00141); experiment: Inhibition of Serum/glucocorticoid regulated kinase (SGK)
T3 sequence (O00141 whole entry): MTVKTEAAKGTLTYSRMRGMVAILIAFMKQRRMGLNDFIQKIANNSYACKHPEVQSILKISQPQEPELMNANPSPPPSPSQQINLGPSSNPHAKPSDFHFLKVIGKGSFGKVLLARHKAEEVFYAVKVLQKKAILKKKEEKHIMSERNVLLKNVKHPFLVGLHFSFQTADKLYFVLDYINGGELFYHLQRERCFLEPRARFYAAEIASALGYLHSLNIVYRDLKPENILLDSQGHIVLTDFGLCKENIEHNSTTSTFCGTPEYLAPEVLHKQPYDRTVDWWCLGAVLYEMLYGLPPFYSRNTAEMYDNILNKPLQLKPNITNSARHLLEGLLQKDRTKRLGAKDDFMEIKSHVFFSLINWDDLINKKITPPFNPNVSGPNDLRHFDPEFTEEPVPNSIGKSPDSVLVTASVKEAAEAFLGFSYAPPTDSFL

[8] = biological target: MAP/microtubule affinity-regulating kinase 3 (Homo sapiens, UniProt P27448); experiment: Inhibition of MAP/microtubule affinity-regulating kinase 3 (cTak1)
[9] = biological target: Mitogen-activated protein kinase 1 (Homo sapiens, UniProt P28482); experiment: Inhibition of Extracellular signal-regulated kinase 2 (ERK2)
[10] = biological target: RAC-alpha serine/threonine-protein kinase (Homo sapiens, UniProt P31749); experiment: Inhibition of Protein kinase B, alpha (Akt1)
[11] = Inhibition of Protein kinase A (PKA)
[12] = biological target: Cyclin-dependent kinase 1 (Homo sapiens, UniProt P06493); experiment: Inhibition of Serine/threonine kinase Cdc2 (Cdc2)
[13] = biological target: Serine/threonine-protein kinase Chk2 (Homo sapiens, UniProt O96017); experiment: Inhibition of Serine/threonine-protein kinase Chk2
SW-620 [14] = experiment: Concentration required to inhibit growth of SW620 (human colon cancer) cells in the presence of 10 uM of Compound 2e; format: functional, cell-based
SW-620 [15] = experiment: Concentration required to inhibit growth of SW620 (human colon cancer) cells; format: functional, cell-based

Chain of Mitogen-activated protein kinase 1 (P28482 whole entry): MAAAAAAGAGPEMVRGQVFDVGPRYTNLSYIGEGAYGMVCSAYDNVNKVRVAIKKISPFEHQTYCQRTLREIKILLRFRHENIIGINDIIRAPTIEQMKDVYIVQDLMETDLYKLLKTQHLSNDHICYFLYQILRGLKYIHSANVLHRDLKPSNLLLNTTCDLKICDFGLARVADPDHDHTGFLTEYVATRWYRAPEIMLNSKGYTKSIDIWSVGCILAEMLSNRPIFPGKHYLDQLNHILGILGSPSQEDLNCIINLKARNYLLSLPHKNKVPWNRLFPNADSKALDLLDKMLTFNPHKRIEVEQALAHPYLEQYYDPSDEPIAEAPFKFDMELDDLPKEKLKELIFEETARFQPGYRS
Chain of RAC-alpha serine/threonine-protein kinase (P31749 whole entry): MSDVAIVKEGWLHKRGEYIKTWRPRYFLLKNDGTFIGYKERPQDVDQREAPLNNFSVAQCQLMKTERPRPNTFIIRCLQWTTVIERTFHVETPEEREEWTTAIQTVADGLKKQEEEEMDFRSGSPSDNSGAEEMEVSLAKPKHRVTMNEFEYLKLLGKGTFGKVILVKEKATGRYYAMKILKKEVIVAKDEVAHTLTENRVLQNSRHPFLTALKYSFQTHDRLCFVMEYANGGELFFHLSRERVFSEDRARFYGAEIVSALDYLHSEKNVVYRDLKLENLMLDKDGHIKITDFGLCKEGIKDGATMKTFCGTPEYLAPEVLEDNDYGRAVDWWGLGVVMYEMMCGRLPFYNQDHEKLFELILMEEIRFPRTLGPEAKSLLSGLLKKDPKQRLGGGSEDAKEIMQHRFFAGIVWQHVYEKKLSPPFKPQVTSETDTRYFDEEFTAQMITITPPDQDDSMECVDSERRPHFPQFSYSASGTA
Chain of Cyclin-dependent kinase 1 (P06493 whole entry): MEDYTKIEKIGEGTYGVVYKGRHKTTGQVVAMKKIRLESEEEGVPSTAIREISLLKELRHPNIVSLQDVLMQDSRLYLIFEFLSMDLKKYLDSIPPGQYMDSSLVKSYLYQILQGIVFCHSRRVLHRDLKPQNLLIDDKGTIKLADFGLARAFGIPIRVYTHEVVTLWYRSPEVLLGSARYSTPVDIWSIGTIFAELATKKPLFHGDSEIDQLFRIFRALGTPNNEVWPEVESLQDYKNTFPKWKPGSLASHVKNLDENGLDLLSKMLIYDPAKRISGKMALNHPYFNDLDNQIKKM
Chain of Protein kinase C delta type (Q05655 whole entry): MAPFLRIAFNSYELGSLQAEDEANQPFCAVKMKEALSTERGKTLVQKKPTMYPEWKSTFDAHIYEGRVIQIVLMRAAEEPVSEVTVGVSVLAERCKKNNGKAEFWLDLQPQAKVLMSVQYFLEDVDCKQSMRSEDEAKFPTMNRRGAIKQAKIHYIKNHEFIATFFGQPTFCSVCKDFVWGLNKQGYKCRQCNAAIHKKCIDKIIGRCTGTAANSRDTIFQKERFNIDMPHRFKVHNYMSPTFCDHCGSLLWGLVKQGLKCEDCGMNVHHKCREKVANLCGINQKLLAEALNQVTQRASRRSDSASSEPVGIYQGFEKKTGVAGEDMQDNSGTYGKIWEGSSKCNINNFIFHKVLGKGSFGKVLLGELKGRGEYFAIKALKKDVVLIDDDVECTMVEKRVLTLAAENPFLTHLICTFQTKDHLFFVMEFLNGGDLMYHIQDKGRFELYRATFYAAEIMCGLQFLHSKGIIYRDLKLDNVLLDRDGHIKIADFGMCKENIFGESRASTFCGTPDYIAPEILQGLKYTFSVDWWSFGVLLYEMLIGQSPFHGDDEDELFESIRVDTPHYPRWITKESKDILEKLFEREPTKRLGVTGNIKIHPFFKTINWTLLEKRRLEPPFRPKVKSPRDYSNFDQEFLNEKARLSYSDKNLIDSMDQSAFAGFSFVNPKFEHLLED
Chain of MAP/microtubule affinity-regulating kinase 3 (P27448 whole entry): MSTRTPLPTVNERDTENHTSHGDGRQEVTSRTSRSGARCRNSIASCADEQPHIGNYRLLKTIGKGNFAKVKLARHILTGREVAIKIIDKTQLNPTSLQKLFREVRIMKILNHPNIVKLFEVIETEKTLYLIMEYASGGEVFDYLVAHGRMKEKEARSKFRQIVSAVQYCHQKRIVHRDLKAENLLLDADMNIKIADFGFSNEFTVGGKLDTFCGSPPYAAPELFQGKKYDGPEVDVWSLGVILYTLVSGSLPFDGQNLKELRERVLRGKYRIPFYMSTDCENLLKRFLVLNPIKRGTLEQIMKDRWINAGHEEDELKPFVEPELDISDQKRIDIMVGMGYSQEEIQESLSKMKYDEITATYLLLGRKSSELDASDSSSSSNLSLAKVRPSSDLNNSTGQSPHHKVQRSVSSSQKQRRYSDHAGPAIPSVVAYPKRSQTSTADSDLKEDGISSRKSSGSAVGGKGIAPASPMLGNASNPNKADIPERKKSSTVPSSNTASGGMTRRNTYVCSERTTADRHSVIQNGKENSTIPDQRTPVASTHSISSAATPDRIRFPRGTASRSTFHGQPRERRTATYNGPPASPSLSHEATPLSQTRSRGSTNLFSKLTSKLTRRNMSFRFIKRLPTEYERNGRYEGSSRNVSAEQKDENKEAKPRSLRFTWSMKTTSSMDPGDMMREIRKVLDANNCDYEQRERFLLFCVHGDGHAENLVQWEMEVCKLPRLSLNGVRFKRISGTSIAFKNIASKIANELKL
Chain of Serine/threonine-protein kinase Chk2 (O96017 whole entry): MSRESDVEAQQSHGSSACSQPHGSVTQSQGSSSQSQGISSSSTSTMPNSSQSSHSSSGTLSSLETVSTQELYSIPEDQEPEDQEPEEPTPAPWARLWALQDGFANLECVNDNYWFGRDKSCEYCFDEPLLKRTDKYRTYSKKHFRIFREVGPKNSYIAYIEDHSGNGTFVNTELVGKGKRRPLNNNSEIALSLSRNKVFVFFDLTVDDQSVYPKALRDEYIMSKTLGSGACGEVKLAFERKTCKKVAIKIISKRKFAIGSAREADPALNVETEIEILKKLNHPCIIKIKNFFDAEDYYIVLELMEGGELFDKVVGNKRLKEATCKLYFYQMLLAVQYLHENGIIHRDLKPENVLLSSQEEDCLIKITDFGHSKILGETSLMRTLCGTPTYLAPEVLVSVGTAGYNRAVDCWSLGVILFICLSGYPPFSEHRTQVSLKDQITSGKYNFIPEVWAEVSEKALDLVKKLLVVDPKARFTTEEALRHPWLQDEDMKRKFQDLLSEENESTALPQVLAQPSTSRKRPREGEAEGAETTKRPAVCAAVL

SMILES	EC50 (HeLa [1])	IC50 (Aurora kinase A)	IC50 [3]	IC50 [4]	EC50 (HeLa [5])	IC50 [6]	IC50 [7]	IC50 [8]	IC50 [9]	IC50 [10]	IC50 [11]	IC50 [12]	IC50 [13]	Ratio (HeLa [2])	EC50 (SW-620 [14])	EC50 (SW-620 [15])
N#Cc1cnc(NC(=O)Nc2cc(Cl)ccc2OC2CCOCC2)cn1	> 59 µM	–	–	–	37 µM	0.005 µM	–	–	–	–	–	–	–	>1	–	–
CC[C@@]1(O)C(=O)OCc2c1cc1n(c2=O)Cc2cc3ccccc3nc2-1 [CAMPTOTHECIN]	–	–	–	–	–	–	–	–	–	–	–	–	–	–	0.00015 µM	0.0012 µM

Continued, in another order:

EC50 (HeLa [1])	IC50 (Aurora kinase A)	IC50 [3]	IC50 [4]	EC50 (HeLa [5])	IC50 [6]	IC50 [7]	IC50 [8]	IC50 [9]	IC50 [10]	IC50 [11]	IC50 [12]	IC50 [13]	SMILES	Ratio (HeLa [2])	EC50 (SW-620 [14])	EC50 (SW-620 [15])
> 59 µM	> 10 µM	> 50 µM	> 50 µM	2.6 µM	0.007 µM	> 50 µM	> 10 µM	> 50 µM	9.21 µM	> 50 µM	> 50 µM	–	CC1(COc2ccc(Cl)cc2NC(=O)Nc2cnc(C#N)cn2)COC1	>22	–	–
10.4 µM	–	–	–	10 µM	0.01 µM	–	–	–	–	–	–	–	CN1CCC(Oc2ccc(Cl)cc2NC(=O)Nc2cnc(C#N)cn2)CC1	1	–	–
18.7 µM	–	–	–	5 µM	0.003 µM	–	–	–	–	–	–	–	N#Cc1cnc(NC(=O)Nc2cc(Cl)ccc2OC2CCOC2)cn1 (stereo unspecified)	3.6	–	–
1.5 µM	3.23 µM	50 µM	50 µM	0.4 µM	0.008 µM	> 50 µM	1.51 µM	> 50 µM	> 50 µM	> 50 µM	> 50 µM	2.8 µM	CC(CN(C)C)Oc1ccc(Cl)cc1NC(=O)Nc1cnc(C#N)cn1 (stereo unspecified)	3.7	–	–
